From publication PMC7333658, “Identification and Quantification of Novel Major Metabolites of the Steroidal Aromatase Inhibitor, Exemestane” (Drug Metabolism and Disposition, 2018)
Several values for one entry are separate records, joined by “and”; a condition that tells them apart may be missing. Equal values may be shown once.

Assays:
[1] = UPLC-MS/MS quantification of EXE and its metabolites in plasma of subjects taking EXE; assay type: in vivo, human; details: for Plasma Percentage of TEM (Mean ± S.E.): TEM = EXE + 17β-DHE + 17β-DHE-Gluc + 6-EXE-cys + 6-DHE-cys, calculated per subject, then mean of 132; for Plasma concentration, Mean ± S.E. / Plasma concentration, Range: n = 132 subjects; for Plasma concentration, Mean ± S.E.: 25 mg EXE daily orally for at least 28 days, sampled 4-6 hours after pill; for Plasma concentration, Range: 25 mg EXE daily orally, 4-6 hours after pill
Description: (§1) One hundred and thirty-two postmenopausal breast cancer patients (one Hispanic, two African Americans, two Asians, and 127 Caucasians; age range: 35–89 years) with ER+ breast tumors were recruited into this study from the Breast Oncology Clinic at the Penn State Hershey Cancer Institute. Approval was obtained from the Institutional Review Board at Penn State University with informed consent obtained from all subjects. Subjects took a single pill (25 mg) of EXE daily (orally) for at least 28 consecutive days and provided blood (10 ml) and urine (up to 50 ml) specimens between 4 and 6 hours after pill ingestion as described previously ([Luo et al., 2018]). Blood was separated by centrifugation at 1300g for 15 minutes at room temperature. Aliquoted plasma and buffy coat fractions of blood samples and aliquoted urine samples were stored at −80°C until analysis. As a control for EXE metabolism, specimens obtained from women not taking EXE who were recruited into other studies at Penn State University College of Medicine (Hershey, PA; n = 10) were also examined to exclude false positives ([Ashmore et al., 2013]).
To quantify in vivo levels of EXE and its metabolites, the sample preparation method was modified from that described earlier for metabolite identification. For EXE metabolite analysis in plasma, a 2.5-µl aliquot of each plasma sample was first spiked with 2.5 µl of a mixture of deuterium-labeled internal standards in methanol [D3-EXE (0.17 μM), D3-17β-DHE (1.7 μM), 17β-OH-EXE-d3-17-O-β-D-glucuronide (0.52 μM), D3-6-EXE-cys (0.06 μM), and D3-6-17β-DHE-cys (0.25 μM)]. Twenty microliters of pure methanol was then added to extract EXE and its metabolites and to precipitate proteins. After vortexing and subsequent centrifugation at 16,100g for 10 minutes at 4°C, 15 µl of the supernatant was transferred to a sample vial and mixed with 15 µl of water prior to analysis by UPLC-MS.
(§2) For the simultaneous quantification of EXE, 17β-DHE, 17β-DHE-Gluc, 6-EXE-cys, and 6-17β-DHE-cys, urine and plasma samples were prepared as described earlier. Using the same UPLC-MS system described earlier, UPLC was performed with solvent A (5 mM ammonium formate and 0.01% formic acid in water) and solvent B (100% acetonitrile) using the following conditions for both urine and plasma specimens: 0–1.5 minutes at 25% solvent B, a linear gradient to 52% solvent B for 1.5–2.5 minutes, 2.5–4.5 minutes at 52% solvent B, a linear gradient to 95% solvent B from 4.5 to 5 minutes, 5–9.5 minutes at 95% solvent B, followed by a linear gradient to initial conditions of 25% solvent B from 9.5 to 10 minutes. This was followed by a 1-minute run at 25% solvent B to equilibrate the column to initial conditions before the next sample injection. The flow rate was 0.4 ml/min from 0 to 5 minutes, 0.8 ml/min from 5 to 9.5 minutes, and back to 0.4 ml/min from 9.5 to 10 minutes. The injection volume of each prepared urine and plasma sample was 5 µl. The column temperature was 35°C. The Waters XEVO G2-S QTOF MS was operated in tandem mass spectrometry (MS/MS) mode, with the electrospray ionization probe operated in the positive-ion mode and a capillary voltage at 0.6 kV. The cone and desolvation gas flow rates were maintained at 50 and 800 l/h, respectively, and the collision gas flow rate was 0.1 l/h. The source and desolvation gas temperatures were 120°C and 500°C, respectively, and the dwell time for each ion was 300 ms.
(§3) The limits of quantification for EXE, 17β-DHE, 17β-DHE-Gluc, 6-EXE-cys, and 6-17β-DHE-cys were 2.1, 1.6, 1.2, 0.7, and 7.2 nM in plasma, respectively, and 2.1, 1.6, 6.3, 1.5, and 7.2 nM in urine, respectively. Standard curves were constructed by plotting the ratio of analyte peak area to peak area of the corresponding internal standard (described earlier) versus concentration of analyte standard. The concentrations of stock standards were 1000 ppm. […]

[2] = UPLC-MS/MS quantification of EXE and its metabolites in urine of subjects taking EXE; assay type: in vivo, human; details: for Urine Percentage of TEM (Mean ± S.E.): TEM = EXE + 17β-DHE + 17β-DHE-Gluc + 6-EXE-cys + 6-DHE-cys, calculated per subject, then mean of 132; for Urine concentration, Mean ± S.E. / Urine concentration, Range: n = 132 subjects; for Urine concentration, Mean ± S.E.: 25 mg EXE daily orally for at least 28 days, sampled 4-6 hours after pill; for Urine concentration, Range: 25 mg EXE daily orally, 4-6 hours after pill
Description: as §1
For EXE metabolite analysis in urine, a 2.5-µl aliquot of each urine sample was first spiked with 2.5 µl of the same deuterium-labeled internal standard mixture described earlier. Ten microliters of 75% methanol was then added to extract EXE and its metabolites. After vortexing and subsequent centrifugation at 16,100g for 10 minutes at 4°C, 10 µl of the supernatant was transferred to a sample vial and mixed with 5 µl of water prior to analysis by UPLC-MS.
as §2
as §3, with “ppm. A serial dilution of standards at concentrations ranging from 1.6 nM to 1.7 μM, 1.6 nM to 1.7 μM, 1.0 nM to 2.1 μM, 0.7 nM to 12 μM, and 4.6 nM to 2.4 μM was used to establish standard curves for EXE, 17β-DHE, 17β-DHE-Gluc, 6-EXE-cys, and 6-17β-DHE-cys, respectively.” for “ppm.”

[3] = in vivo; cited from earlier work
[4] = ref Luo et al., 2018, cited from earlier work

Compound	Urine concentration range as printed in the discussion ([2]; female, human, in vivo) [pM]	Plasma Percentage of TEM (Mean ± S.E.) ([1]; plasma)	Plasma concentration, Mean ± S.E. ([1]; plasma)	Plasma concentration, Range ([1]; plasma) [nM]	Urine Percentage of TEM (Mean ± S.E.) ([2]; urine)	Urine concentration, Mean ± S.E. ([2]; urine)	Urine concentration, Range ([2]; urine)	other results
C[C@]12C=CC(=O)C=C1C(CSC[C@H](N)C(=O)O)C[C@@H]1[C@@H]2CC[C@]2(C)C(=O)CC[C@@H]12 (single isomer, unassigned) [6-EXE-cys, 6-methylcysteinylandrosta-1,4-diene-3,17-dione]	3.3 to 50000							Share of the total mean cysteine conjugate levels in plasma ([1]; female, human, in vivo): 79%; Share of the total mean cysteine conjugate levels in urine ([2]; female, human, in vivo): 77%
C[C@]12CC[C@H]3[C@@H](CC(CSC[C@H](N)C(=O)O)C4=CC(=O)C=C[C@@]43C)[C@@H]1CC[C@@H]2O (stereo partly drawn) [6-17β-DHE-cys, 6-methylcysteinylandrosta-1,4-diene-17β-hydroxy-3-one]	3.3 to 10000							
CSc1ncnc2c1ncn2[C@@H]1O[C@H](CO)[C@@H](O)[C@H]1O [6-methylmercaptopurine riboside]								Fold lower levels in GSTM1-null genotype than in carriers of one or two copies of GSTM1 [3]: 2 fold
C=C1CC2C(CCC3(C)C(O)CCC23)C2(C)C=CC(=O)C=C12 (stereo not drawn) [17β-DHE, 17β-dihydro-EXE]		12% and 12 ± 1.2%	2.5 nM and 2.5 ± 0.19 nM	0.11 to 14	0.14% and 0.14 ± 0.025%	0.0066 nmol/mg creatinine and 0.0066 ± 0.0012 nmol/mg creatinine	0–0.099 nmol/mg creatinine	Fold lower average percentage of TEM than 17β-DHE-Gluc ([1]; plasma): 3 fold; Increase in plasma level with increasing numbers of the UGT2B17 deletion allele ([4]; same women taking EXE): 1.3 fold
C=C1C[C@H]2[C@@H]3CC[C@H](O[C@@H]4O[C@H](C(=O)O)[C@@H](O)[C@H](O)[C@H]4O)[C@@]3(C)CC[C@@H]2[C@@]2(C)C=CC(=O)C=C12 [17β-DHE-Gluc, 17β-hydroxy-EXE-17-O-β-D-glucuronide]		36% and 36 ± 1.8%	30 nM and 30 ± 4.6 nM	0.32 to 358	21% and 21 ± 1.6%	1.4 nmol/mg creatinine and 1.4 ± 0.37 nmol/mg creatinine	0.0068–45 nmol/mg creatinine	Decrease in plasma level with increasing numbers of the UGT2B17 deletion allele ([4]; women taking EXE): up to 29 fold; Ratio of mean combined cysteine conjugates (6-EXE-cys plus 6-17β-DHE-cys) to 17β-DHE-Gluc in urine ([2]; urine, 17β-DHE-Gluc is the lower): 5.5 fold
C=C1C[C@@H]2[C@H](CC[C@]3(C)C(=O)CC[C@@H]23)[C@@]2(C)C=CC(=O)C=C12 [EXE, Exemestane]		17% and 17 ± 0.91%	14 nM and 14 ± 1.7 nM	0 to 105	1.7% and 1.7 ± 0.20%	0.21 ± 0.045 nmol/mg creatinine	0–3.2 nmol/mg creatinine	
